Source: patent publication US9045423B2, “Prophylactic and/or therapeutic agent for anemia comprising tetrahydroquinoline compound as active ingredient” (KOWA COMPANY, LTD., priority 2009, dated 2015)

Assays:
[1] = test system: K562 cells, a human proerythroblast cell line; experiment: Hemoglobin production in K562 cells (fluorescence of the porphyrin ring); type: cell-based; conditions: for enhancement of hemoglobin production: drug concentration 20 μM; for activity at 6 µM: Homo sapiens, K562, 144 h, 6 μM test compound, 3 + 3 days incubation, non-stimulated state without compound = 100, read-out: amount of hemoglobin, % of control (6 μM)
Method: K562 cells (obtained from ATCC), which is a human proerythroblast cell line, were inoculated at a concentration of 1×10^5 cells/1 mL in each well of a 24-well plate, using complete medium (RPMI-1640 medium containing 10% bovine fetal serum), and 1 μL of a test compound at a 1000-fold concentration was added to each well. Subsequently, the cells were incubated for 3 days in a CO2 incubator (37° C., 5% CO2). The medium was exchanged, and the cells were further incubated for 3 days. The cells were collected and counted. Subsequently, the amount of hemoglobin produced in the cells was determined by adjusting the number of cells to 3×10^5 cells, and measuring the fluorescence of the porphyrin ring. That is, the cells collected by centrifugation were suspended in 500 μL of 2 M oxalic acid, and were heated to boil for 30 minutes. The cells were cooled, and then the fluorescence intensity was measured by using a fluorescence microplate reader (Spectra MAX GeminiEM; Molecular Devices Corp.) ([…]). The amount of hemoglobin in a non-stimulated state where no compound was added was designated as 100-, and the amount of hemoglobin (% of control) produced as induced by each of the compounds was determined.

[2] = test system: HepG2 cells derived from human liver cancer; experiment: EPO production in HepG2 cells (EPO ELISA of culture supernatant); type: cell-based; conditions: for activity at 3 µM / activity at 10 µM: Homo sapiens; for activity at 3 µM: HepG2, 3 μM test compound, 48 hrs, 4% oxygen, non-stimulated state without compound = 100%, read-out: amount of EPO production, % of control (3 μM); for activity at 10 µM: HepG2, 48 h, read-out: enhancement of EPO production
Method: HepG2 cells derived from human liver cancer were inoculated in an amount of 5×10^4 cells per well on a 48-well plate, using minimum essential medium (MEM, Sigma-Aldrich Company) containing 10% bovine fetal serum. On the next day, the medium was exchanged with Dulbecco's modified eagle medium (DMEM (Sigma-Aldrich Company)) containing 10% bovine fetal serum without Phenol Red. Then, a test compound dissolved in DMSO was added thereto to obtain a final concentration of 3 μM or 10 μM, and the amount of medium was adjusted to 400 μL per well. The cells were incubated for 48 hrs in a CO2 incubator in which the oxygen concentration was adjusted to 4%, and then the culture supernatant was collected. The EPO concentration in the culture supernatant was immediately measured using an EPO ELISA kit (Roche Diagnostics GmbH). The method was carried out according to the operation manual.
The amount of EPO production in a non-stimulated state where no compounds were added, was designated as 100%, and the amount of EPO production (% of control) induced by each of the compounds was determined.

[3] = final concentration 10 μM, non-stimulated state = 100%

Structure (SMILES) | activity at 3 µM [2] [%] | activity at 6 µM [1] [%] | other results
CC(=O)N1c2ccc(NS(C)(=O)=O)cc2C(Nc2ccc(N3CCOCC3)cc2)CC1C (stereo not shown) [Compound 98, 1-Acetyl-6-methanesulfonylamino-2-methyl-4-[(4-morpholinophenyl)-amino]-1,2,3,4-tetrahydroquin-oline] |  |  | enhancement of hemoglobin production [1]: 142%
CC(=O)N1c2ccc(N3CCOCC3)cc2C(Nc2ccc(N3CCOCC3)cc2)CC1C (stereo not shown) [Compound 161, 1-Acetyl-2-methyl-6-morpholino-4-[(4-morpholinophenyl)-amino]-1,2,3,4-tetrahydroquinoline] | 351 | 308 | 
CC(=O)N1c2ccc(C(N)=O)cc2[C@H](Nc2ccc(NS(C)(=O)=O)cc2)C[C@@H]1C (relative stereo) [Compound 102, 1-Acetyl-4-[(4-methanesulfonyl-aminophenyl)amino]-2-methyl-1,2,3,4-tetrahydroquinoline-6-carbox-amide] |  |  | enhancement of hemoglobin production [1]: 115%
COC(=O)CCCCCNC(=O)c1ccc2c(c1)C(Nc1ccc(N3CCOCC3)cc1)CC(C)N2C(C)=O (stereo not shown) [Compound 157, Methyl 6-{1-Acetyl-2-methyl-4-[(4-morpholinophenyl)-amino]-1,2,3,4-tetrahydro-quinoline-6-carboxamido}-hexanoate] |  | 396 | activity at 10 µM [2, 3]: 237%
CCOC(=O)c1ccc2c(c1)C(Nc1ccc(C3CCOCC3)cc1)CC(C)N2C(C)=O (stereo not shown) [Compound 153, Ethyl 1-acetyl-2-methyl-4-{[4-(tetrahydro-2H-pyran-4-yl)-phenyl]amino}-1,2,3,4-tetrahydroquinoline-6-carboxylate] |  | 294 | 
CC(=O)N1c2ccc(C(N)=O)cc2C(Nc2ccc(-c3cnns3)cc2)CC1C (stereo not shown) [Compound 173, 1-Acetyl-2-methyl-4-{[4-(1,2,3-thiadiazol-5-yl)-phenyl]amino}-1,2,3,4-tetrahydroquinoline-6-carboxamide] | 323 | 158 | 
CC(=O)N1c2ccc(C(N)=O)cc2C(Oc2ccc(Cl)cc2)CC1C (stereo not shown) [Compound 142, 1-Acetyl-4-(4-chlorophenoxy)-2-methyl-1,2,3,4-tetrahydro-quinoline-6-carboxamide] | 129 | 478 | 
CC(=O)N1c2ccccc2C(Nc2ccc3ocnc3c2)CC1C (stereo not shown) [Compound 136, 1-Acetyl-4-[(benzoxazol-5-yl)-amino]-2-methyl-1,2,3,4-tetrahydroquinoline] | 141 | 136 | 
CC(=O)N1c2ccc(C(=O)NC(=O)c3ccccc3)cc2C(Nc2ccc(N3CCOCC3)cc2)CC1C (stereo not shown) [Compound 166, 1-Acetyl-N-benzoyl-2-methyl-4-[(4-morpholinophenyl)-amino]-1,2,3,4-tetrahydroquinoline-6-carboxamide] | 185 | 282 | 
CC(=O)N1c2ccc(C(=O)O)cc2C(Nc2ccc(-c3cnns3)cc2)CC1C (stereo not shown) [Compound 172, 1-Acetyl-2-methyl-4-{[4-(1,2,3-thiadiazol-5-yl)-phenyl]amino}-1,2,3,4-tetrahydroquinoline-6-carboxylic acid] | 152 | 168 | 
CC(=O)N1c2ccc(C(=O)O)cc2C(Nc2cccc(N3CCOCC3)c2)CC1C (stereo not shown) [Compound 179, 1-Acetyl-2-methyl-4-[(3-morpholinophenyl)-amino]-1,2,3,4-tetrahydroquinoline-6-carboxylic acid] | 138 | 124 | 
CC(=O)N1c2ccc(C(=O)O)cc2C(Nc2ccc(Cl)cc2)CC1C (stereo not shown) [Compound 42, 1-Acetyl-4-[(4-chlorophenyl)-amino]-2-methyl-1,2,3,4-tetrahydro-quinoline-6-carboxylic acid] |  |  | enhancement of EPO production [2, 3]: 138%
CC(=O)N1c2ccc(N3CCN(C(=O)C(C)C)CC3)cc2C(Nc2ccc(NS(C)(=O)=O)cc2)CC1C (stereo not shown) [Compound 111, 1-Acetyl-6-[(4-isopropylcarbonyl)-piperazino]-4-[(4-methanesulfonyl-aminophenyl)amino]-2-methyl-1,2,3,4-tetrahydroquinoline] |  |  | enhancement of hemoglobin production [1]: 171%
CC(=O)N1c2ccccc2[C@H](OCc2ccccc2)C[C@@H]1C (relative stereo) [Compound 36, 1-Acetyl-2-methyl-4-benzyloxy-1,2,3,4-tetrahydroquinoline] |  |  | enhancement of hemoglobin production [1]: 143%
CC(=O)N1c2ccc(C(=O)NCCOCCOCCOCCC(=O)OC(C)(C)C)cc2C(Nc2ccc(Cl)cc2)CC1C (stereo not shown) [Compound 148, Tert-butyl 12-{1-Acetyl-4-[(4-chlorophenyl)-amino]-2-methyl-1,2,3,4-tetrahydroquinoline-6-carboxamido}-4,7,10-trioxadodecanoate] |  | 506 | 
COC(=O)CCCc1ccc(NC(=O)c2ccc3c(c2)C(Nc2ccc(Cl)cc2)CC(C)N3C(C)=O)cc1 (stereo not shown) [Compound 150, Methyl 4-{4-{1-Acetyl-4-[(4-chlorophenyl)-amino]-2-methyl-1,2,3,4-tetrahydroquinoline-6-carboxamido}-phenyl}butanoate] |  | 534 | 
CC(=O)N1c2ccc(-c3cnc(C)[nH]3)cc2C(Nc2ccc(Cl)cc2)CC1C (stereo not shown) [Compound 127, 4-{1-Acetyl-4-[(4-chlorophenyl)-amino]-2-methyl-1,2,3,4-tetra-hydroquinolin-6-yl}-2-methyl-1H-imidazole] | 96 |  | activity at 10 µM [2, 3]: 130%
CNC(=O)c1ccc2c(c1)C(Nc1ccc(C3CCOCC3)cc1)CC(C)N2C(C)=O (stereo not shown) [Compound 155, 1-Acetyl-N,2-dimethyl-4-{[4-(tetrahydro-2H-pyran-4-yl)phenyl]amino}-1,2,3,4-tetrahydroquino-line-6-carboxamide] |  | 387 | 
CC(=O)N1c2ccc(C(=O)O)cc2C(Oc2ccc(Cl)cc2)CC1C (stereo not shown) [Compound 141, 1-Acetyl-4-(4-chlorophenoxy)-2-methyl-1,2,3,4-tetrahydro-quinoline-6-carboxylic acid] |  | 209 | 
CCOC(=O)Cc1ccc(NC2CC(C)N(C(C)=O)c3ccc(NS(C)(=O)=O)cc32)cc1 (stereo not shown) [Compound 99, 1-Acetyl-6-methanesulfonylamino-2-methyl-4-[(4-ethoxycarbonyl-methylphenyl)amino]-1,2,3,4-tetra-hydroquinoline] |  |  | enhancement of hemoglobin production [1]: 306%
CC(=O)N1c2ccc(N3CCN(C(C)C)CC3)cc2C(Nc2ccc(N3CCOCC3)cc2)CC1C (stereo not shown) [Compound 159, 1-Acetyl-6-(4-isopropylpiperazin-1-yl)-2-methyl-4-[(4-morpholinophenyl)-amino]-1,2,3,4-tetrahydroquinoline] | 292 |  | 
CNC(=O)c1ccc2c(c1)C(Nc1cccc(N3CCOCC3)c1)CC(C)N2C(C)=O (stereo not shown) [Compound 180, 1-Acetyl-N,2-dimethyl-4-[(3-morpholinophenyl)amino]-1,2,3,4-tetrahydroquinoline-6-carboxamide] |  | 150 | 
CC(=O)N1c2ccc(C(=O)O)cc2C(Oc2ccc(N3CCOCC3)cc2)CC1C (stereo not shown) [Compound 139, 1-Acetyl-2-methyl-4-(4-morpho-linophenoxy)-1,2,3,4-tetrahydro-quinoline-6-carboxylic acid] |  | 193 | 
CC(=O)N1c2c(Br)cccc2C(Nc2ccccc2)CC1C (stereo not shown) [Compound 63, 1-Acetyl-8-bromo-4-phenylamino-2-methyl-1,2,3,4-tetrahydroquino-line] |  |  | enhancement of hemoglobin production [1]: 260%
CNC(=O)c1ccc2c(c1)C(Nc1ccc(-c3ncco3)cc1)CC(C)N2C(C)=O (stereo not shown) [Compound 170, 1-Acetyl-N,2-dimethyl-4-{[4-(oxazol-2-yl)phenyl]-amino}-1,2,3,4-tetrahydroquinoline-6-carboxamide] | 128 |  | 
CC(=O)N1c2c(F)cccc2[C@H](Nc2ccccc2F)C[C@@H]1C (relative stereo) [Compound 4, 1-Acetyl-8-fluoro-4-[(2-fluoro-phenyl)amino]-2-methyl-1,2,3,4-tetrahydroquinoline] |  |  | enhancement of hemoglobin production [1]: 162%
CC(=O)N1c2ccc(N3CC(C)OC(C)C3)cc2C(Nc2ccc(NS(C)(=O)=O)cc2)CC1C (stereo not shown) [Compound 110, 1-Acetyl-6-[(2,6-dimethyl)-morpholino]-4-[(4-methanesulfonylaminophenyl)-amino]-2-methyl-1,2,3,4-tetrahydroquinoline] | 207 |  | 
CC(=O)N1c2ccc(C(N)=O)cc2C(Nc2ccc(C3CCOCC3)cc2)CC1C (stereo not shown) [Compound 156, 1-Acetyl-2-methyl-4-{[4-(tetrahydro-2H-pyran-4-yl)phenyl]amino}-1,2,3,4-tetrahydroquinoline-6-carboxamide] |  | 371 | 
